Measured values as given in US7208273B2, “Common polymorphism in scn5a implicated in drug-induced cardiac arrhythmia” (University of Utah Research Foundation, priority 2000, dated 2007).

Test system: African-American individuals with SCN5A variant S1103Y
Conditions: carriers of SCN5A S1103Y variant; three individuals after amiodarone treatment, one after infusion of brevital; QT prolongation exacerbated in these cases
Source text: To determine the genetic basis for these arrhythmias, individuals with drug-induced torsade de pointes and ventricular fibrillation were screened for mutations in known arrhythmia genes.

C=CCC1(C(C)C#CCC)C(=O)N=C([O-])N(C)C1=O.[Na+] (stereo not shown) [brevital]
arrhythmia after drug treatment: experienced arrhythmia
